Laboratory results as given in patent US5523303A, “Trisubstituted cycloalkane derivatives and process for the preparation thereof” (Egis Gyogyszergyar Rt., priority 1993, dated 1996).
Like-named read-outs stand apart in the source and are kept apart here.

Columns and labels:
[1] = test system: erosion of the stomach wall; experiment: Cytoprotective effect: inhibition of ethanol-induced erosion of the stomach wall on rats (method of Robert); assay type: in vivo; details: for ED50: Rattus norvegicus, po; for Ratio of acid-secretion inhibition and erosion inhibition: ratio of the ED50 values
Description: 3. The cytoprotective effect was determined on rats according to the method of Robert [Robert, A.: Cytoprotection by prostaglandins. […] Rats weighing 200 to 250 g were used as test animals. 1 cm^3 of abs. ethanol was introduced to the stomach to produce an erosion of the stomach wall. The length and frequency of the lesions (erosion index and frequency) were measured and the percentage inhibition of lesion formation compared with vehicle-treated animals was calculated.

[2] = prior art; cited from earlier work
[3] = Acute toxicity on mice (method of Lichtfield and Wilcoxon), LD50; details: mouse, in vivo, po, 14 days observation
Description: The test was carried out according to the method of Lichtfield and Wilcoxon [Lichtfield, J. T. and Wilcoxon, F. W.: J. Pharmacol. Exp. Ther., 96, 99 (1949)] by using white mice belonging to the CFLP strain and weighing 10 to 22 g, 10 animals per dose. The test compounds were administered orally in a volume of 20 cm3 /kg.

H^+ K^+ -ATP-ase = molecular target: T1, H^+ K^+ -ATP-ase (Sus scrofa, UniProt P19156); experiment: H+/K+-ATP-ase inhibition on partially purified pig's microsome specimen (method of Rabon and Sachs); assay type: biochemical
T1 construct: on partially purified pig's microsome specimen; from tissue; host or cells: pig stomach, partially purified microsomes
Description: 1. H^+ /K^+ -ATP-ase inhibition on pig'stomach. The test was carried out according to the method of Rabon and Sachs [E. C. Rabon, W. B. I. and G. Sachs: Preparation of gastric H^+ /K^+ -ATP-ase. Methods in Enzymology, 157, 649-651 (1988)]. The activity of the prepared enzyme was measured both in the presence and in the absence of K^+ ions. The difference in the liberation of phosphorus representing the activity of the enzyme was measured.

[4] = Acute toxicity on mice (method of Lichtfield and Wilcoxon), LD50; details: mouse, in vivo, ip, 14 days observation
beta-adrenergic = details: prior art; cited from earlier work
gastric-acid-secretion = experiment: Gastric-acid-secretion inhibition on rats (method of Shay et al.); assay type: in vivo; details: Rattus norvegicus, po, read-out: Acid-secretion inhibition, ED50
Description: 2. […] The liberated gastric acid content was determined by titration 4 hours after the ligature of the duodenum.

lipid level = details: prior art; cited from earlier work
[5] = rats, p.o., 4 hours after ligature

T1 sequence (P19156 2-1034 limits assumed): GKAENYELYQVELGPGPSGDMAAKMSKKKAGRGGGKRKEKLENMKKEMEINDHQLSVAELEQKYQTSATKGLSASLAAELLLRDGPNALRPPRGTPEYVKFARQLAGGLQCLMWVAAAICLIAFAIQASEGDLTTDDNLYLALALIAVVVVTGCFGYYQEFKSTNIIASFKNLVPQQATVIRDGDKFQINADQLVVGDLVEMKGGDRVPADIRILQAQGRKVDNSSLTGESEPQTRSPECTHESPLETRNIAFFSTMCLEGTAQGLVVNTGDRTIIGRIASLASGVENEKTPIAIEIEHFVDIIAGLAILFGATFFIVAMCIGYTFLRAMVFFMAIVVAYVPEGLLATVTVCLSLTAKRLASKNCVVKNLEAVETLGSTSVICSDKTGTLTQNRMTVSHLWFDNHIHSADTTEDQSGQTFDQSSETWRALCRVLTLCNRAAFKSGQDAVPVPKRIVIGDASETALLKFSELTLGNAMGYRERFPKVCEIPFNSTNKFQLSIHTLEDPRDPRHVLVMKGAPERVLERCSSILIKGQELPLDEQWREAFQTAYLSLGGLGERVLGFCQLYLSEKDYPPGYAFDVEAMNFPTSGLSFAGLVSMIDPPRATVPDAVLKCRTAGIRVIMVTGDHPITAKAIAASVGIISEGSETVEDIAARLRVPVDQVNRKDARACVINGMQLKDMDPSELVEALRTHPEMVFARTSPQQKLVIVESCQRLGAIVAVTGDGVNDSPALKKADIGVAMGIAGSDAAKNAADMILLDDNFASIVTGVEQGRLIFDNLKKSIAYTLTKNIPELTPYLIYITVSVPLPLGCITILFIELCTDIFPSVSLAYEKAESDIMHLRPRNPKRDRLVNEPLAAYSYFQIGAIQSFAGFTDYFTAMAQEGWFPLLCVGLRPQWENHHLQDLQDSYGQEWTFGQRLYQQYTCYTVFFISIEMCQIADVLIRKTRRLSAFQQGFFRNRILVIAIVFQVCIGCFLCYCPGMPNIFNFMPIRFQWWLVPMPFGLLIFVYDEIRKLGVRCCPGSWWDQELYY
T1 sequence (P18434 whole entry partner): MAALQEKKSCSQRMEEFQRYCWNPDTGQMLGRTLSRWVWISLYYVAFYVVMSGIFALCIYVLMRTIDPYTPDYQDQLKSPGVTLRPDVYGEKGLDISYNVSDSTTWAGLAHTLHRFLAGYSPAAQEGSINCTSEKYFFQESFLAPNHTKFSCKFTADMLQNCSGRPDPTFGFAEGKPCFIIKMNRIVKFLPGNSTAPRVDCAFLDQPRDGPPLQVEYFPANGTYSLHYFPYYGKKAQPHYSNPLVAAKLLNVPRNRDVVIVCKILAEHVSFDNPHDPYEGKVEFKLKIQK

Compound | LD50 at 336 h [3] [mg/kg] | IC50 (H^+ K^+ -ATP-ase) [µM] | LD50 at 336 h [4] [mg/kg] | ED50 (gastric-acid-secretion; [5]) [mg/kg] | ED50 ([1]; abs. ethanol) [mg/kg] | Ratio of acid-secretion inhibition and erosion inhibition ([1]; p.o.) | other results
Sucralfate [reference compound] |  |  |  |  |  |  | Ethanol erosion ED50 ([1]; p.o., abs. ethanol): 69 mg/kg
COc1cccc(C=NOCC(O)CN2CCN(c3ccccc3OC)CC2)c1 (stereo not drawn) [Peradoxime] |  |  |  |  |  |  | hypotensive effect [2]: has a hypotensive effect
CCN(CC)CCO/N=C1/C(=C/c2ccc(Cl)c(Cl)c2)CCCC1C (racemic) [Example 41, (R,S)-6-(E)-(3,4-Dichlorophenylmethylene)-2-methyl-1-(E)-[2-(diethylamino)-ethoxyimino]-cyclohexane] | > 1000 | 17 | 100 to 300 |  |  |  | 
CC(=NOCC(O)CNC(C)(C)C)C1CC1 (stereo not drawn) [Falintolol] |  |  |  |  |  |  | beta-adrenergic blocking activity (beta-adrenergic): exhibit beta-adrenergic blocking activity
COc1ccc2[nH]c([S+]([O-])Cc3ncc(C)c(OC)c3C)nc2c1 (stereo not drawn) [Omeprazole, reference compound] |  |  |  | 3.9 | 4.5 | 0.9 | 
CCCCCCC1CCCC(=C\c2ccccc2OC)/C1=N/OCCN(CC)CC (racemic) [Example 34, (R,S)-6-(E)-(2-Methoxyphenylmethylene)-2-hexyl-1-(E)-[2-(diethylamino)-ethoxyimino]-cyclohexane] | ~1000 | 5 | 88 | 103 | 1.4 | 73.4 | 
CCCC1CCCCC(=C\c2ccc(Cl)cc2)/C1=N/OCC(O)CN1CCCC1 (racemic) [Example 44, (R,S)-2-Propyl-7-(E)-(4-chlorophenylmethylene)-1-(E)-[2-hydroxy-3-(N-pyrrolidinylpropoxyimino)]-cycloheptane] | > 1000 | 10 | 100 to 300 | 50 to 200 | 1.6 |  | 
CC(CO/N=C1/C(=C/c2ccc(F)cc2)CCCC1C)CN(C)C (racemic) [Example 9, (R,S)-6-(E)-(4-Fluorophenylmethylene)-2-methyl-1-(E)-[3-(dimethylamino)-2-methylpropoxyimino]-cyclohexane] | 600 | > 30 | ~300 | 30 to 120 | 1.2 | 25-100 | 
CCCC1CCCCC(=C\c2ccc(Cl)cc2)/C1=N/OCCN(CC)CC (racemic) [Example 40, (R,S)-7-(E)-(4-Chlorophenylmethylene)-2-propyl-1-(E)-[2-(diethylamino)-ethoxyimino]-cycloheptane] | > 1000 | 7 | 100 to 300 | 52.9 | 2.6 | 20 | 
CN/C(=N/CCSCc1nc[nH]c1C)NC#N [Cimetidine, reference compound] |  |  |  |  | 100 to 200 | 0.3-0.6 | ED50 (gastric-acid-secretion; 4 h): 59.1 mg/kg
CC(C)(C)NCC(O)CON=C1c2ccccc2-c2ccccc21 (stereo not drawn) [IPS-339] |  |  |  |  |  |  | beta-adrenergic blocking activity (beta-adrenergic): exhibit beta-adrenergic blocking activity
CCCCCC1CCCC(=C\c2ccc(F)cc2)/C1=N/OCCN1CCN(Cc2ccccc2)CC1 (racemic) [Example 31, (R,S)-6-(E)-(4-Fluorophenylmethylene)-2-pentyl-1-(E)-[2-(4-phenylmethyl-1-piperazinyl)-ethoxyimino]-cyclohexane] | > 1000 | > 30 | > 300 | 200 | 3.9 | 50 | 
CN1CCN(CC(=O)N2c3ccccc3C(=O)Nc3cccnc32)CC1 [Pirenzepine, reference compound] |  |  |  | 7.9 | 18.6 | 0.4 | 
CCCCCCCC1CCCC(=C\c2ccc(F)cc2)/C1=N/OCCN(C)C (racemic) [Example 35, (R,S)-6-(E)-(4-Fluorophenylmethylene)-2-heptyl-1-(E)-[2-(dimethylamino)-ethoxyimino]-cyclohexane] | > 1000 |  | 100 to 300 | < 200 | 2.9 | ≤ 70 | 
OC(CON=Cc1ccc(Cl)cc1)CN1CCN(c2ccccc2Cl)CC1 (stereo not drawn) [Peraclopon] |  |  |  |  |  |  | lipid level lowering (lipid level): lipid level lowering agent
